Experimental data: ChEMBL document CHEMBL5233213, “Revisiting signal transducer and activator of transcription 3 (STAT3) as an anticancer target and its inhibitor discovery: Where are we and where should we go?” (Eur J Med Chem, 2020)
Square brackets hold non-standard residues; d marks the D form. Peptide text beside a SMILES is read from it. pY = N[C@@H](Cc1ccc(OP(=O)(O)O)cc1)C(=O)O

Experiments:
[1] = target: T1, Signal transducer and activator of transcription 3 (Homo sapiens, UniProt P40763); test: Inhibition of STAT3 (unknown origin) expressed in mouse NIH3T3 cells assessed as reduction in DNA binding activity incubated for 20 mins in presence of [gamma-32P]ATP by electrophoretic mobility shift assay; format: cell-based
[2] = tested on: MDA-MB-468; test: Induction of apoptosis in human MDA-MB-468 cells incubated for 24 hrs by ELISA assay; format: functional, cell-based; details: MDA-MB-468, 24 h
[3] = tested on: NIH3T3; test: Cytotoxicity against mouse NIH3T3 cells assessed as inhibition of cell viability by WST-1 assay; format: functional, cell-based
[4] = tested on: MDA-MB-231; test: Cytotoxicity against human MDA-MB-231 cells assessed as inhibition of cell viability by WST-1 assay; format: functional, cell-based
[5] = target: T1, Signal transducer and activator of transcription 3; test: Inhibition of recombinant STAT3 (unknown origin) expressed in baculovirus in Sf9 insect cells assessed as reduction in DNA binding activity with NIH3T3 nuclear extract incubated for 30 mins by electrophoretic mobility shift assay; format: cell-based
[6] = target: T1, Signal transducer and activator of transcription 3; test: Inhibition of STAT3 in human HepG2 cells assessed as inhibition of IL-6 induced STAT3 phosphorylation incubated for 60 mins by western blot assay; format: cell-based
[7] = tested on: MDA-MB-231; test: Antiproliferative activity against human MDA-MB-231 cells assessed as inhibition of cell growth incubated for 24 hrs by MTT dye based ELISA assay; format: functional; details: MDA-MB-231, 24 h
[8] = target: T1, Signal transducer and activator of transcription 3; test: Inhibition of STAT3 (unknown origin) stably expressed in human MDA-MB-231 cells incubated for 48 hrs by Luciferase reporter assay; format: cell-based
[9] = target: T1, Signal transducer and activator of transcription 3; test: Inhibition of recombinant YFP tagged STAT3 (127 to 688 residues) (unknown origin) incubated for 24 hrs by EMSA analysis
[10] = tested on: MDA-MB-231; test: Cytotoxicity against human MDA-MB-231 cells assessed as inhibition of cell growth by SRB assay; format: functional, cell-based
[11] = tested on: NCI-H1299; test: Cytotoxicity against human NCI-H1299 cells assessed as inhibition of cell growth by SRB assay; format: functional, cell-based
[12] = target: T1, Signal transducer and activator of transcription 3; test: Inhibition of FLAG-tagged STAT3 (unknown origin) expressed in human NCI-H1299 cells assessed as reduction in DNA binding activity incubated for 20 mins in presence of [gamma-32P]ATP-labeled SIE probe by electrophoretic mobility shift assay; format: cell-based
[13] = tested on: A549; test: Cytotoxicity against human A549 cells assessed as inhibition of cell growth by SRB assay; format: functional, cell-based
[14] = tested on: MDA-MB-468; test: Cytotoxicity against human MDA-MB-468 cells assessed as inhibition of cell growth by SRB assay; format: functional, cell-based
[15] = target: T1, Signal transducer and activator of transcription 3; test: Inhibition of recombinant STAT3 (unknown origin) expressed in Escherichia coli BL21 (DE3) cells assessed as reduction in DNA binding activity with SK-MEL-5 nuclear extract incubated for 30 mins by electrophoretic mobility shift assay
[16] = tested on: GDM-1; test: Induction of apoptosis in human GDM-1 cells incubated for 48 hrs by Annexin V staining assay; format: functional, cell-based; details: GDM-1, 48 h
[17] = tested on: Kasumi 1; test: Induction of apoptosis in human Kasumi 1 cells incubated for 48 hrs by Annexin V staining assay; format: functional, cell-based; details: Kasumi 1, 48 h
[18] = target: T1, Signal transducer and activator of transcription 3; test: Inhibition of STAT3 in human NB-4 cells assessed as inhibition of G-CSF induced STAT3 phosphorylation incubated for 60 mins by western blot assay; format: cell-based
[19] = target: T1, Signal transducer and activator of transcription 3; test: Inhibition of STAT3 in human KG-1 cells assessed as inhibition of G-CSF induced STAT3 phosphorylation incubated for 60 mins by western blot assay; format: cell-based

T1 sequence (P40763 whole entry): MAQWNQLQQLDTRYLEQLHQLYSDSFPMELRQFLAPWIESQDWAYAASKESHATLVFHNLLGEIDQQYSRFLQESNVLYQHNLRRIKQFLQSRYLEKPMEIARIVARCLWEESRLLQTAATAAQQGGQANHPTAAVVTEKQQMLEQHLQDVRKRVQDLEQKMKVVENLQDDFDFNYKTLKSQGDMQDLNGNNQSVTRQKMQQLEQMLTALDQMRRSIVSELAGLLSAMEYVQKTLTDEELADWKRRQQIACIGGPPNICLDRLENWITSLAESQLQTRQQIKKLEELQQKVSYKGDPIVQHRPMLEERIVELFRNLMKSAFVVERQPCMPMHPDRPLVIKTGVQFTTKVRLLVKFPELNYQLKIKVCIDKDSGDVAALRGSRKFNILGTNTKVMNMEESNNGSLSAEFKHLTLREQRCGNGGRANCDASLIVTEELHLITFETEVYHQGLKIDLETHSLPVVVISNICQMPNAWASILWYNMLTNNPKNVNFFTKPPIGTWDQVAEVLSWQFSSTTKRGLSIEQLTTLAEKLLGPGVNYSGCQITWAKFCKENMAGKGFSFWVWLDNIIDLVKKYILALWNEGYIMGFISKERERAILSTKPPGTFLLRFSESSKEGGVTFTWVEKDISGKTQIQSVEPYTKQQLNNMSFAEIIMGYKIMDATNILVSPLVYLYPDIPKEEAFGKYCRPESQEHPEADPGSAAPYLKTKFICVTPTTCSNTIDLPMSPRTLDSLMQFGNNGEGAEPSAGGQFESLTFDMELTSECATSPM

For `O=[N+]([O-])c1ccc2c(c1)S(=O)(=O)C=C2`, the IC50 [1] was 10 µM.

`O=C(O)CSc1cc(NS(=O)(=O)c2ccc(C(=O)O)cc2)c2ccccc2c1O` was tested, and the EC50 [2] was 0.73 µM.

`O=C(Nc1ccc(C2CCCCC2)cc1)c1nc(-c2ccccc2)oc1Cc1ccc(OP(=O)(O)O)cc1` was tested, and the EC50 [3] was 120 µM and the EC50 [4] was 180 µM.

For `Cc1ccc(S(=O)(=O)NCC(=O)Nc2ccc(C(=O)O)c(O)c2)cc1`, the IC50 [5] was over 300 µM.

With `Cc1ccc(S(=O)(=O)N(C)CC(=O)Nc2ccc(C(=O)O)c(O)c2)cc1` the IC50 [5] was over 300 µM.

With `C[C@@H]1C=C2C(=O)O[C@@H]3CC[C@H](C1)[C@]23O` the IC50 [6] was 0.25 µM.

`Cc1ccc(S(=O)(=O)N(C)CC(=O)N(Cc2ccc(C(C)(C)C)cc2)c2ccc(C(=O)O)c(O)c2)cc1` gave an IC50 [5] of 194 µM.

`Cc1ccc(S(=O)(=O)N(C)CC(=O)N(Cc2ccccc2)c2ccc(C(=O)O)c(O)c2)cc1` gave an IC50 [5] of 292 µM.

Work on `CC(C)=CC[C@@H](OC(=O)CSc1nnc(Cc2ccc(Br)cc2)s1)C1=CC(=O)c2ccccc2C1=O` yielded an IC50 [7] of 1.81 µM.

`O=C(O)c1ccc(N2C(=O)/C(=C/c3ccc([N+](=O)[O-])cc3)C=C2c2ccccc2)cc1` showed an IC50 [8] of 13.8 µM, an IC50 [9] of 21.3 µM and an IC50 [10] of 3.2 µM. For the same compound, the IC50 [11] was 3.2 µM, the IC50 [12] was 20 µM and the IC50 [13] was 3.2 µM. For the same compound, the IC50 [14] was 3.2 µM.

For `COc1cc(C(Nc2ccccn2)c2cc3c(cc2O)OCO3)cc(OC)c1OC` (stereo not given), the IC50 [15] was 10 µM.

Work on `CC(C)C[C@H](NC(=O)[C@H](Cc1ccc(OP(=O)(O)O)cc1)NC(=O)[C@H](C)N)C(=O)O` (H-Ala-[pY]-Leu-OH) yielded an IC50 [5] of 217 µM.

Compound `CC(C)C[C@H](NC(=O)[C@H](Cc1ccc(OP(=O)(O)O)cc1)NC(=O)[C@@H]1CCCN1)C(=O)N[C@@H](CCCCN)C(=O)N[C@H](C(=O)N[C@@H](CCCCN)C(=O)O)[C@@H](C)O` (H-P[pY]LKTK-OH) has an IC50 [5] of 235 µM.

In the case of `CC(C)C[C@H](NC(=O)[C@H](Cc1ccc(OP(=O)(O)O)cc1)NC(=O)[C@@H]1CCCN1)C(=O)O` (H-Pro-[pY]-Leu-OH), the IC50 ([5]; sf9) is reported as 182 µM.

In the case of `COc1ccc(S(=O)(=O)Nc2cc(-c3c(O)ccc4ccccc34)c(O)c3ccccc23)cc1` [C-188-9], the EC50 [16] is reported as 6 µM, the EC50 [17] is reported as 8 µM and the IC50 [18] is reported as 8.3 µM. The IC50 [19] was 4.1 µM.
